Experimental data from patent publication US9326539B2, “Compositions comprising dietary fat complexers and methods for their use” (Soho Flordis International Pty. Ltd., priority 2002, dated 2016).

Assay: Wistar rat feeding study: plasma glucose, cholesterol, triglyceride, insulin resistance
Assay type: in vivo, Wistar rats
Description: The rats were housed as pairs for five weeks prior to being placed in individual metabolic cages for the sixth week of the study. All of the rats' feces were collected during the final three days of the study. At the end of the sixth week of the study period the rats were sacrificed by decapitation after a brief exposure to carbon dioxide gas. Trunk blood and the livers were collected from each animal. The rest of the body was eviscerated and all visible fat from the internal cavity was collected and weighed. The carcass was frozen for body composition analysis at a later date.
The plasma glucose, cholesterol and triglyceride concentrations were measured on all of the sacrificed animals using standard clinical laboratory techniques as may be found in Tietz Textbook of Clinical Chemistry, second edition. Burtis C A and Ashwood E R eds., W.B. Saunders Company A Division of Harcourt Brace & Company, 1994, Philadelphia incorporated herein by reference. (FIG. 5). On average the α-cyclodextrin appeared to have decreased the plasma total cholesterol levels by about 10%. This decrease was not statistically significant over this short study period; we expect that with longer feeding period, cholesterol levels will continue to decline. […] LDL cholesterol levels on all of the animals were too low to measure reliably since in rats the majority of the cholesterol is carried in the HDL-cholesterol fraction, and very little is carried in the LDL-cholesterol fraction.
Increased insulin resistance, elevated blood triglycerides and reduced HDL cholesterol levels are all the risk factors of Syndrome X. Insulin/glucose ratios as well as triglyceride/HDL ratios were calculated to provide indications about insulin resistance and risk of Syndrome X. (Szejtli J. Mater. Chem. 1997; 7:575-587 incorporated herein by reference). […] The reduction in triglyceride/HDL cholesterol ratios by α-cyclodextrin indicated a significant decrease in the risk for Syndrome X.

OC[C@H]1O[C@@H]2O[C@H]3[C@H](O)[C@@H](O)[C@@H](O[C@H]4[C@H](O)[C@@H](O)[C@@H](O[C@H]5[C@H](O)[C@@H](O)[C@@H](O[C@H]6[C@H](O)[C@@H](O)[C@@H](O[C@H]7[C@H](O)[C@@H](O)[C@@H](O[C@H]1[C@H](O)[C@H]2O)O[C@@H]7CO)O[C@@H]6CO)O[C@@H]5CO)O[C@@H]4CO)O[C@@H]3CO [α-cyclodextrin]
triglyceride/HDL cholesterol ratios (6 week study): reduction
decrease of HDL cholesterol (at sacrifice): 6-8%
plasma glucose levels (at sacrifice): not affected significantly
reduction of plasma triglyceride levels (at sacrifice, p<0.05): about 30%
decrease of plasma total cholesterol (on average, at sacrifice, not statistically significant): about 10%
